Experimental data reported in BindingDB's records for PubMed 34286973 (University of Chinese Academy of Sciences, 2021).

Biological target: E3 ubiquitin-protein ligase Mdm2 (Homo sapiens, UniProt Q00987)
Assay: Binding affinity to human MDM2 assessed as dissociation constant

E3 ubiquitin-protein ligase Mdm2, sequence (Q00987 whole entry): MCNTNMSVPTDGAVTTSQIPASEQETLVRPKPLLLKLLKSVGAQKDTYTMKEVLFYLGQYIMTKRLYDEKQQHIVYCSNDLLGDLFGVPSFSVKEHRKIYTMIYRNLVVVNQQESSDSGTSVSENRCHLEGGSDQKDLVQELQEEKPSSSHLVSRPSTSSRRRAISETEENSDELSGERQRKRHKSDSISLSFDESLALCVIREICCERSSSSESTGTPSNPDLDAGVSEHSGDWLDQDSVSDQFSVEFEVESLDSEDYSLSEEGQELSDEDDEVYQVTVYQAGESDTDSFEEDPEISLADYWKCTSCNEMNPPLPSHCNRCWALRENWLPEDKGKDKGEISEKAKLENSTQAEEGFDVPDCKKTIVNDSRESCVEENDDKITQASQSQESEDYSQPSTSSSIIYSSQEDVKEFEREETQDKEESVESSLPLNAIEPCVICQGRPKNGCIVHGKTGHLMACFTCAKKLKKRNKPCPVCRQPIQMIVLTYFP

Ki: 54 µM
Structure (SMILES): O=C(CN(Cc1ccc(Cl)cc1)C(=O)c1cc2ccccc2[nH]1)NC1CCCCC1
